We go through 20 compounds from PubChem BioAssay AID248 (DTP/NCI, 2004).

“And” between values parts separate entries of the source, which are not always exact repeats. Equal entries are not always repeated. Inconclusive results and toxic doses are left out.

The assay has as its system L1210 leukemia ip in BDF1 mice, survival T/C. Kind of assay: NCI In Vivo Anticancer Drug Screen. Data for tumor model L1210 Leukemia (intraperitoneal) in B6D2F1 (BDF1) mice. As to conditions: endpoint: mean survival time, higher = longer survival. The method in brief:
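Value reflects the ratio of survival in compound-treated mice to survival in vehicle-treated controls, with both groups carrying the same transplanted tumor.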

The mark [1] stands for this setting: dose: 100.0 mg/kg/injection, schedule: Q01DX009 (ip), vehicle: Klucel (hydroxypropylcellulose) (HPC).
[2] abbreviates: dose: 100.0 mg/kg/injection, schedule: Q04DX003 (ip), vehicle: Klucel (hydroxypropylcellulose) (HPC).
Where [3] appears, read: dose: 200.0 mg/kg/injection, schedule: Q01DX009 (ip), vehicle: Klucel (hydroxypropylcellulose) (HPC).
[4] abbreviates: dose: 200.0 mg/kg/injection, schedule: Q04DX003 (ip), vehicle: Klucel (hydroxypropylcellulose) (HPC).
Setting [5] is: dose: 400.0 mg/kg/injection, schedule: Q01DX009 (ip), vehicle: Klucel (hydroxypropylcellulose) (HPC).
Setting [6] is: dose: 400.0 mg/kg/injection, schedule: Q04DX003 (ip), vehicle: Klucel (hydroxypropylcellulose) (HPC).
Where [7] appears, read: dose: 100.0 mg/kg/injection, schedule: Q04DX003 (ip), vehicle: saline.
The mark [8] stands for this setting: dose: 400.0 mg/kg/injection, schedule: Q04DX002 (ip), vehicle: saline with Tween-80.
[9] abbreviates: dose: 400.0 mg/kg/injection, schedule: Q01DX001 (ip), vehicle: Klucel (hydroxypropylcellulose) (HPC).
The mark [10] stands for this setting: dose: 100.0 mg/kg/injection, schedule: Q01DX001 (ip), vehicle: Klucel (hydroxypropylcellulose) (HPC).
[11] abbreviates: dose: 200.0 mg/kg/injection, schedule: Q01DX001 (ip), vehicle: Klucel (hydroxypropylcellulose) (HPC).
[12] abbreviates: dose: 100.0 mg/kg/injection, schedule: Q01DX009 (ip), vehicle: saline with Tween-80.
Where [13] appears, read: dose: 100.0 mg/kg/injection, schedule: Q01DX001 (ip), vehicle: saline.
The mark [14] stands for this setting: dose: 200.0 mg/kg/injection, schedule: Q01DX001 (ip), vehicle: saline.
The mark [15] stands for this setting: dose: 400.0 mg/kg/injection, schedule: Q01DX001 (ip), vehicle: saline.
The mark [16] stands for this setting: dose: 200.0 mg/kg/injection, schedule: Q01DX009 (ip), vehicle: saline with Tween-80.

As for `O=C(c1ccccc1)C(Br)C(c1ccccc1)c1ccccc1` (stereo not given), the T/C is 94 % of control under setting [1]; 104 % of control under setting [2]; 94 % of control under setting [3]; 104 % of control under setting [4]; 100 % of control under setting [5]; 98 % of control under setting [6].
With `S=C1CCNCC1`, under setting [7], the T/C was 88 % of control.
In the case of `CCCCC(CC)COc1nc(OCC(CC)CCCC)nc(OCC(CC)CCCC)n1` (stereo not given), the T/C runs as follows: (dose: 25.6 mg/kg/injection, schedule: Q04DX002 (ip), vehicle: saline with Tween-80) 91 % of control; (dose: 64.0 mg/kg/injection, schedule: Q04DX002 (ip), vehicle: saline with Tween-80) 91 % of control; (dose: 100.0 mg/kg/injection, schedule: Q04DX003 (ip), vehicle: saline with Tween-80) 88 % of control; (dose: 160.0 mg/kg/injection, schedule: Q04DX002 (ip), vehicle: saline with Tween-80) 91 % of control; (dose: 200.0 mg/kg/injection, schedule: Q04DX003 (ip), vehicle: saline with Tween-80) 92 % of control; under setting [8], 87 % of control. Also, under “dose: 400.0 mg/kg/injection, schedule: Q04DX003 (ip), vehicle: saline with Tween-80”, the T/C is 87 % of control.
In the case of `N=c1ncn(C2OC(COP(=O)(O)O)C(O)C2O)c2nc[nH]c12` (stereo not given), the T/C is 102 % of control (dose: 1.56 mg/kg/injection, schedule: Q01DX005 (ip), vehicle: water); 103 % of control (dose: 6.25 mg/kg/injection, schedule: Q01DX005 (ip), vehicle: water); 105 % of control (dose: 12.5 mg/kg/injection, schedule: Q01DX005 (ip), vehicle: water); 94 % of control (dose: 25.0 mg/kg/injection, schedule: Q01DX005 (ip), vehicle: water).
In the case of `O=C(Nc1nccs1)C(Cl)Cl`, the T/C (dose: 100.0 mg/kg/injection, schedule: Q01DX001 (ip), vehicle: carboxymethylcellulose (CMC)) was 103 % of control; the T/C (dose: 177.0 mg/kg/injection, schedule: Q01DX001 (ip), vehicle: Klucel (hydroxypropylcellulose) (HPC)) is 105 % of control; the T/C (dose: 200.0 mg/kg/injection, schedule: Q01DX001 (ip), vehicle: carboxymethylcellulose (CMC)) is 118 % of control; the T/C (dose: 266.0 mg/kg/injection, schedule: Q01DX001 (ip), vehicle: Klucel (hydroxypropylcellulose) (HPC)) was 107 % of control; the T/C under setting [9] was 105 % of control; the T/C (dose: 400.0 mg/kg/injection, schedule: Q01DX001 (ip), vehicle: carboxymethylcellulose (CMC)) was 249 % of control. In addition, the T/C (dose: 600.0 mg/kg/injection, schedule: Q01DX001 (ip), vehicle: Klucel (hydroxypropylcellulose) (HPC)) was 105 % of control.
With `NS(=O)(=O)c1ccc(NC(=O)Nc2cccc(CNC(=O)COc3ccc(Cl)cc3C(=O)O)c2)cc1`, the T/C was 98 % of control under setting [10], 91 % of control under setting [11] and 98 % of control under setting [9].
With `CCOC(=O)COc1c(C(=O)OC)cc([N+](=O)[O-])cc1[N+](=O)[O-]`, the T/C runs as follows: (dose: 100.0 mg/kg/injection, schedule: Q04DX002 (ip), vehicle: saline with Tween-80) 104 % of control; (dose: 200.0 mg/kg/injection, schedule: Q04DX002 (ip), vehicle: saline with Tween-80) 97 % of control; under setting [8], 90 % of control.
As for `O=C1C=C2CCCCC2C1` (stereo not given), the T/C runs as follows: (dose: 50.0 mg/kg/injection, schedule: Q01DX009 (ip), vehicle: saline with Tween-80) 100 % of control; under setting [12], 88 % of control.
`NC(=O)Nc1cccc(C(F)(F)F)c1`: the T/C (dose: 75.0 mg/kg/injection, schedule: Q01DX001 (ip), vehicle: carboxymethylcellulose (CMC)) is 98 % of control; the T/C (dose: 150.0 mg/kg/injection, schedule: Q01DX001 (ip), vehicle: carboxymethylcellulose (CMC)) was 102 % of control; the T/C (dose: 300.0 mg/kg/injection, schedule: Q01DX001 (ip), vehicle: carboxymethylcellulose (CMC)) is 103 % of control.
`CCCC(=O)C(C)C(=O)C(F)(F)F.CCCC(=O)C(C)C(=O)C(F)(F)F.CCCC(=O)C(C)C(=O)C(F)(F)F.[Er]` (stereo not given): the T/C is 116 % of control under setting [1]; 98 % of control under setting [2]; 102 % of control under setting [3]; 94 % of control under setting [4]; 113 % of control under setting [5]; 94 % of control under setting [6].
For `NNc1cc(S(=O)(=O)O)cc(C(=O)O)c1O`, the T/C is 107 % of control under setting [13]; 100 % of control and 103 % of control (dose: 100.0 mg/kg/injection, schedule: Q01DX009 (ip), vehicle: saline); 97 % of control and 90 % of control (dose: 100.0 mg/kg/injection, schedule: Q04DX002 (ip), vehicle: saline); 102 % of control under setting [14]; 110 % of control and 89 % of control (dose: 200.0 mg/kg/injection, schedule: Q01DX009 (ip), vehicle: saline); 100 % of control and 90 % of control (dose: 200.0 mg/kg/injection, schedule: Q04DX002 (ip), vehicle: saline). Further, the T/C reads like this: under setting [15], 102 % of control; (dose: 400.0 mg/kg/injection, schedule: Q01DX009 (ip), vehicle: saline) 87 % of control; (dose: 400.0 mg/kg/injection, schedule: Q04DX002 (ip), vehicle: saline) 108 % of control and 90 % of control.
On to `CN1CCC23c4ccccc4NC1C21CCN(C)C3Nc2ccccc21`, for which the T/C was 97 % of control (dose: 6.25 mg/kg/injection, schedule: Q01DX Z (ip), vehicle: saline); 110 % of control (dose: 12.5 mg/kg/injection, schedule: Q01DX Z (ip), vehicle: saline); 100 % of control (dose: 25.0 mg/kg/injection, schedule: Q01DX Z (ip), vehicle: saline); 101 % of control (dose: 50.0 mg/kg/injection, schedule: Q01DX Z (ip), vehicle: saline); 107 % of control under setting [1]; 96 % of control under setting [3].
On to `O=S(=O)(Cc1ccccc1)CC(Cl)c1ccccc1` (stereo not given), for which the T/C is, setting by setting: under setting [10], 98 % of control; under setting [2], 97 % of control; under setting [11], 98 % of control; under setting [4], 101 % of control; under setting [9], 104 % of control; under setting [6], 92 % of control.
Regarding `Cc1ccc(N=NC2C(=O)c3ccccc3C2=O)cc1`, the T/C runs as follows: (dose: 50.0 mg/kg/injection, schedule: Q01DX001 (ip), vehicle: saline) 100 % of control; under setting [13], 100 % of control; under setting [14], 97 % of control; under setting [15], 103 % of control.
As to `CC(=O)NCCCC1CCCCC1CN` (stereo not given), the T/C was 104 % of control under setting [7]; 114 % of control (dose: 200.0 mg/kg/injection, schedule: Q04DX003 (ip), vehicle: saline); 114 % of control (dose: 400.0 mg/kg/injection, schedule: Q04DX003 (ip), vehicle: saline).
On to `Cc1cc(CC(O)(C(F)(F)Cl)C(F)(F)Cl)cc(C)n1`, for which the T/C by setting is: under setting [12], 97 % of control; under setting [16], 94 % of control; (dose: 400.0 mg/kg/injection, schedule: Q01DX009 (ip), vehicle: saline with Tween-80) 95 % of control.
As for `Cc1nc(-c2ccccc2)nc2c1CCO2`, the T/C was 100 % of control under setting [12] and 107 % of control under setting [16].
Turning to `Nc1nc2ccccc2n1C1OC(CO)C(O)C1O` (stereo not given), the T/C was 101 % of control under setting [13], 95 % of control under setting [14] and 104 % of control under setting [15].
For the compound `CC(=O)NNS(=O)(=O)c1ccccc1`, the T/C was 102 % of control under setting [10]; 106 % of control under setting [1]; 100 % of control under setting [11]; 95 % of control under setting [3]; 105 % of control under setting [9].
For the compound `C[n+]1c(/C=C/c2ccnc3c(O)cccc23)sc2ccccc21`, the T/C is, setting by setting: (dose: 15.0 mg/kg/injection, schedule: Q01DX001 (ip), vehicle: saline) 105 % of control; (dose: 30.0 mg/kg/injection, schedule: Q01DX001 (ip), vehicle: saline) 97 % of control.
